Each molecule was assayed against catalytic domain of human PARP14 (Homo sapiens (Human), UniProt Q460N5) (assay: Enzymatic assay for inhibition of PARP14 (DELFIA, auto-modification with biotin-NAD)). Conditions: auto-modification of PARP14 by biotin-NAD, 50 nM PARP14, 3 μM biotin-NAD.
Type: biochemical
Outline: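 DELFIA auto-modification read-out: europium-streptavidin bound to biotin-NAD incorporated onto nickel-captured His-TEV PARP14 catalytic domain. Compound preincubated 30 min, then 50 nM enzyme with 3 μM biotin-NAD reacted 3 h, all at 25 °C, pH 8, then NAD quench. Percent inhibition normalized to rucaparib/DMSO wells, fitted (4- or 3-parameter) for IC50.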

Chain of catalytic domain of human PARP14 (Q460N5 1611-1801): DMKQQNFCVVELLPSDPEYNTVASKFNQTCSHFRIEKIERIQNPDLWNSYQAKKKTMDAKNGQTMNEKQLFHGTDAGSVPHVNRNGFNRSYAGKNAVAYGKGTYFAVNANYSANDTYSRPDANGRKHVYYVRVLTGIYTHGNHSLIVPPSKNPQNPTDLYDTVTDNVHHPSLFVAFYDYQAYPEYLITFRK

`CO[C@H]1CC[C@H](SCc2nc3cc(OCC4CCOCC4)cc(F)c3c(=O)[nH]2)CC1` [Example 356] and `CO[C@H]1CC[C@@H](SCc2nc3cc(OCC4CCOCC4)cc(F)c3c(=O)[nH]2)CC1` [Example 357] cannot be ordered by IC50: less than 1000 nM for the first, less than 1000 nM for the second.

`CC1(SCc2nc3cc(OCC4CCOCC4)cc(F)c3c(=O)[nH]2)CCOCC1` [Example 358] and `C[C@]1(O)CC[C@@H](SCc2nc3cc(OCC4CCOCC4)cc(F)c3c(=O)[nH]2)CC1` [Example 411] cannot be ordered by IC50: less than 1000 nM for the first, less than 1000 nM for the second.

`N#C[C@H]1CC[C@H](Nc2cc3nc(CSC4CCOCC4)[nH]c(=O)c3c(F)c2F)CC1` [Example 360] and `N#C[C@H]1CC[C@@H](Nc2cc3nc(CSC4CCOCC4)[nH]c(=O)c3c(F)c2F)CC1` [Example 361] cannot be ordered by IC50: less than 1000 nM for the first, less than 1000 nM for the second.

`CO[C@H]1C[C@H](Nc2cc3nc(CSC4CCOCC4)[nH]c(=O)c3c(F)c2F)C1` [Example 362] and `O=c1[nH]c(CSC2CCOCC2)nc2cc(N[C@H]3C[C@@H](OC(F)(F)F)C3)c(F)c(F)c12` [Example 402] cannot be ordered by IC50: less than 1000 nM for the first, less than 1000 nM for the second.

`CO[C@H]1C[C@@H](Nc2cc3nc(CS[C@H]4CC[C@H](O)CC4)[nH]c(=O)c3c(F)c2F)C1` [Example 363] and `CO[C@H]1CC[C@H](Nc2cc3nc(CS[C@H]4CC[C@H](O)CC4)[nH]c(=O)c3c(F)c2F)CC1` [Example 377] cannot be ordered by IC50: less than 1000 nM for the first, less than 1000 nM for the second.

`Cc1cc(OCC2CCOCC2)cc2nc(CSC3CCOCC3)[nH]c(=O)c12` [Example 364] and `O=c1[nH]c(CSC2CCOCC2)nc2cc(OCC3CCOC3)cc(Br)c12` (centres unmarked) [Example 376] cannot be ordered by IC50: less than 1000 nM for the first, less than 1000 nM for the second.

`O=c1[nH]c(CS[C@H]2CC[C@@H](O)CC2)nc2cc(OCC3CCOCC3)cc(F)c12` [Example 365] and `CC(=O)N[C@H]1CC[C@H](SCc2nc3cc(OCC4CCOCC4)cc(F)c3c(=O)[nH]2)CC1` [Example 426] cannot be ordered by IC50: less than 1000 nM for the first, less than 1000 nM for the second.

`O=c1[nH]c(CSC2CCC(F)(F)CC2)nc2cc(OCC3CCOCC3)cc(F)c12` [Example 366] and `O=c1[nH]c(CSC2CCOCC2)nc2cc(OCC3CCNCC3)cc(F)c12` [Example 399] cannot be ordered by IC50: less than 1000 nM for the first, less than 1000 nM for the second.

`CC(=O)N1CCC(COc2cc(F)c3c(=O)[nH]c(CSC4CCOCC4)nc3c2)C1` (centres unmarked) [Example 367] and `CC(=O)N1CCCC(COc2cc(F)c3c(=O)[nH]c(CSC4CCOCC4)nc3c2)C1` (centres unmarked) [Example 401] cannot be ordered by IC50: less than 1000 nM for the first, less than 1000 nM for the second.

First: O=c1[nH]c(CSC2CCOCC2)nc2cc(CCC3CCCCC3)cc(F)c12 [Example 368]
Second: CC(Oc1cc(F)c2c(=O)[nH]c(CSC3CCOCC3)nc2c1)C1CCCC1 (centres unmarked) [Example 394]
The IC50 of the first is higher: 1000 to 10000 nM for the first, less than 1000 nM for the second.

`CC(=O)N1CCC(CNc2cc3nc(CSC4CCOCC4)[nH]c(=O)c3c(F)c2F)CC1` [Example 369] and `CC(=O)N1CCC(CNc2cc3nc(CS[C@H]4CC[C@H](O)CC4)[nH]c(=O)c3c(F)c2F)CC1` [Example 419] cannot be ordered by IC50: less than 1000 nM for the first, less than 1000 nM for the second.

`O=c1[nH]c(CSC2CCOCC2)nc2cc(SCC3CCOCC3)cc(F)c12` [Example 370] and `O=c1[nH]c(CSC2CCOCC2)nc2cc(OCC3CCOCC3)c(F)c(F)c12` [Example 406] cannot be ordered by IC50: less than 1000 nM for the first, less than 1000 nM for the second.

`C[C@]1(O)CC[C@H](SCc2nc3cc(OCC4CCOC4)cc(F)c3c(=O)[nH]2)CC1` (some centres unmarked) [Example 373] and `C[C@]1(O)C[C@H](COc2cc(F)c3c(=O)[nH]c(CSC4CCOCC4)nc3c2)C1` [Example 385] cannot be ordered by IC50: less than 1000 nM for the first, less than 1000 nM for the second.

`CO[C@H]1C[C@@H](Nc2cc3nc(CS[C@H]4CC[C@](C)(O)CC4)[nH]c(=O)c3c(F)c2F)C1` [Example 374] and `CO[C@H]1C[C@@H](Nc2cc3nc(CS[C@H]4CC[C@H](NC(C)=O)CC4)[nH]c(=O)c3c(F)c2F)C1` [Example 389] cannot be ordered by IC50: less than 1000 nM for the first, less than 1000 nM for the second.

`O=c1[nH]c(CS[C@H]2CC[C@H](OC(F)(F)F)CC2)nc2cc(OCC3CCOCC3)cc(F)c12` [Example 375] and `O=c1[nH]c(CS[C@H]2CC[C@@H](OC(F)(F)F)CC2)nc2cc(OCC3CCOCC3)cc(F)c12` [Example 418] cannot be ordered by IC50: less than 1000 nM for the first, less than 1000 nM for the second.

`CCC(=O)N[C@H]1CC[C@H](SCc2nc3cc(OCC4CC4)cc(F)c3c(=O)[nH]2)CC1` [Example 378] and `O=C(N[C@H]1CC[C@H](SCc2nc3cc(OCC4CC4)cc(F)c3c(=O)[nH]2)CC1)C1CC1` [Example 395] cannot be ordered by IC50: less than 1000 nM for the first, less than 1000 nM for the second.

`CO[C@H]1CC[C@@H](Nc2cc3nc(CS[C@H]4CC[C@H](O)CC4)[nH]c(=O)c3c(F)c2F)CC1` [Example 379] and `O=c1[nH]c(CS[C@H]2CC[C@H](O)CC2)nc2cc(N[C@@H]3CCCOC3)c(F)c(F)c12` [Example 381] cannot be ordered by IC50: less than 1000 nM for the first, less than 1000 nM for the second.

`CC(=O)NC1(C)CCC(SCc2nc3cc(OCC4CC4)cc(F)c3c(=O)[nH]2)CC1` (centres unmarked) [Example 380] and `CC(=O)N1CCC(COc2cc(F)c3c(=O)[nH]c(CS[C@H]4CC[C@](C)(O)CC4)nc3c2)CC1` [Example 409] cannot be ordered by IC50: less than 1000 nM for the first, less than 1000 nM for the second.

`O=c1[nH]c(CS[C@H]2C[C@H](O)C2)nc2cc(OCC3CCOCC3)cc(F)c12` [Example 382] and `O=c1[nH]c(CS[C@H]2C[C@@H](O)C2)nc2cc(OCC3CCOCC3)cc(F)c12` [Example 405] cannot be ordered by IC50: less than 1000 nM for the first, less than 1000 nM for the second.

`N#Cc1cc(OCC2CCOC2)cc2nc(CSC3CCOCC3)[nH]c(=O)c12` (centres unmarked) [Example 383] and `CN1CCOC(COc2cc(F)c3c(=O)[nH]c(CSC4CCOCC4)nc3c2)C1` (centres unmarked) [Example 414] cannot be ordered by IC50: less than 1000 nM for the first, less than 1000 nM for the second.

First: CC(C)(C)CNc1cc2nc(CSC3CCOCC3)[nH]c(=O)c2c(F)c1F [Example 384]
Second: COC(C)(C)CNc1cc2nc(CSC3CCOCC3)[nH]c(=O)c2c(F)c1F [Example 407]
The IC50 of the first is lower: less than 1000 nM for the first, 1000 to 10000 nM for the second. The first is the more potent here.

`C[C@]1(O)C[C@@H](COc2cc(F)c3c(=O)[nH]c(CSC4CCOCC4)nc3c2)C1` [Example 386] and `CN1CCC(COc2cc(F)c3c(=O)[nH]c(CSC4CCOCC4)nc3c2)CC1` [Example 415] cannot be ordered by IC50: less than 1000 nM for the first, less than 1000 nM for the second.

`CC(=O)N[C@H]1C[C@@H](SCc2nc3cc(OCC4CCOCC4)cc(F)c3c(=O)[nH]2)C1` [Example 387] and `CC(=O)N[C@H]1C[C@H](SCc2nc3cc(OCC4CCOCC4)cc(F)c3c(=O)[nH]2)C1` [Example 393] cannot be ordered by IC50: less than 1000 nM for the first, less than 1000 nM for the second.

`O=C(C1CC1)N1CCC(COc2cc(F)c3c(=O)[nH]c(CSC4CCOCC4)nc3c2)CC1` [Example 390] and `CCC(=O)N1CCC(COc2cc(F)c3c(=O)[nH]c(CSC4CCOCC4)nc3c2)CC1` [Example 398] cannot be ordered by IC50: less than 1000 nM for the first, less than 1000 nM for the second.

`CC(=O)N[C@H]1CC[C@H](SCc2nc3cc(OCC4CCOC4)cc(F)c3c(=O)[nH]2)CC1` (some centres unmarked) [Example 391] and `CC(=O)N1CCC(COc2cc(F)c3c(=O)[nH]c(CS[C@H]4CC[C@H](O)CC4)nc3c2)CC1` [Example 396] cannot be ordered by IC50: less than 1000 nM for the first, less than 1000 nM for the second.

`CC(=O)N[C@H]1CC[C@H](SCc2nc3cc(NC4CCC4)c(F)c(F)c3c(=O)[nH]2)CC1` [Example 392] and `CNc1cc2nc(CSC3CCOCC3)[nH]c(=O)c2c(F)c1F` [Example 420] cannot be ordered by IC50: less than 1000 nM for the first, less than 1000 nM for the second.

`CC(C)C(=O)N1CCC(COc2cc(F)c3c(=O)[nH]c(CSC4CCOCC4)nc3c2)CC1` [Example 397] and `COC(=O)N1CCC(COc2cc(F)c3c(=O)[nH]c(CSC4CCOCC4)nc3c2)CC1` [Example 410] cannot be ordered by IC50: less than 1000 nM for the first, less than 1000 nM for the second.

Going from `CC(Nc1cc2nc(CSC3CCOCC3)[nH]c(=O)c2c(F)c1F)C1CCOCC1` (centres unmarked) [Example 400] to `CN1CC[C@H](CNc2cc3nc(CSC4CCOCC4)[nH]c(=O)c3c(F)c2F)[C@@H](F)C1` [Example 425], the IC50 falls from greater than 10000 nM to less than 1000 nM. The second is the more potent here.

First: Nc1cc2nc(CSC3CCOCC3)[nH]c(=O)c2c(F)c1F [Example 403]
Second: CC(C)(C)COc1cc(F)c2c(=O)[nH]c(CSC3CCOCC3)nc2c1 [Example 416]
The IC50 of the first is higher: greater than 10000 nM for the first, less than 1000 nM for the second. The second is the more potent here.

`CN(C)[C@H]1CC[C@H](SCc2nc3cc(OCC4CC4)cc(F)c3c(=O)[nH]2)CC1` [Example 404] and `CC(=O)N1CCC(COc2cc(F)c3c(=O)[nH]c(CS[C@H]4CC[C@@H](O)CC4)nc3c2)CC1` [Example 422] cannot be ordered by IC50: less than 1000 nM for the first, less than 1000 nM for the second.

`CC(=O)N1CCC(COc2cc(F)c3c(=O)[nH]c(CS[C@H]4CC[C@@](C)(O)CC4)nc3c2)CC1` [Example 417] and `CC(=O)N1CCC(COc2cc(Cl)c3c(=O)[nH]c(CSC4CCOCC4)nc3c2)CC1` [Example 423] cannot be ordered by IC50: less than 1000 nM for the first, less than 1000 nM for the second.

`CC(C)(COc1cc(F)c2c(=O)[nH]c(CSC3CCOCC3)nc2c1)C(F)(F)F` [Example 421] and `CN1CCC(COc2cc(F)c3c(=O)[nH]c(CSC4CCOCC4)nc3c2)C(F)(F)C1` (centres unmarked) [Example 427] cannot be ordered by IC50: less than 1000 nM for the first, less than 1000 nM for the second.

`COCC(=O)N1CCC(COc2cc(F)c3c(=O)[nH]c(CSC4CCOCC4)nc3c2)CC1` [Example 424] was tested, and the IC50 was less than 1000 nM.
